From patent publication US20120045393A1 (priority 2009, published 2012)
Non-standard residues stand in square brackets, D forms with d. Residues, ends and D or L forms follow the SMILES beside them. *: point of attachment. DOTA = O=C(O)CN1CCN(CC(=O)O)CCN(CC(=O)*)CCN(CC(=O)O)CC1; Bpa = N[C@@H](Cc1ccc(C(=O)c2ccccc2)cc1)C(=O)O; Ala(4-thiazolyl) = N[C@@H](Cc1cscn1)C(=O)O; d2Nal = N[C@H](Cc1ccc2ccccc2c1)C(=O)O; His(π-Me) = Cn1cncc1C[C@H](N)C(=O)O; azaGly = NNC(=O)O; Sar = CNCC(=O)O

System: LHRH binding sites on human ovarian cancer cells (EFO-27)
Details: not given
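Note: Cell-associated radioactivity on confluent EFO-27 monolayers in 96-well plates, measured by microplate scintillation counting.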

Row | EC50 [nM] | Structure (SMILES)
1 | 710 | N=C(N)NCCC[C@H](NC(=O)[C@@H](Cc1ccc2ccccc2c1)NC(=O)CN1CCN(CC(=O)O)CCN(CC(=O)O)CCN(CC(=O)O)CC1)C(=O)N[C@@H](Cc1c[nH]c2ccccc12)C(=O)N[C@@H](CO)C(=O)N[C@@H](Cc1c[nH]cn1)C(=O)N[C@H](CCCNC(=N)N)C(=O)N[C@@H](Cc1c[nH]c2ccccc12)C(=O)N[C@@H](Cc1ccc(C(=O)c2ccccc2)cc1)C(=O)N1CCC[C@H]1C(=O)NNC(=O)NCCOCCN [compound 3022]
2 | 1380 | CC(=O)N[C@@H](Cc1ccc(CNC(=O)CN2CCN(CC(=O)O)CCN(CC(=O)O)CCN(CC(=O)O)CC2)cc1)C(=O)N[C@@H](Cc1c[nH]cn1)C(=O)N[C@@H](Cc1c[nH]c2ccccc12)C(=O)N[C@@H](CO)C(=O)N[C@@H](Cc1c[nH]cn1)C(=O)N[C@H](CCCNC(=N)N)C(=O)N[C@@H](Cc1c[nH]c2ccccc12)C(=O)N[C@@H](Cc1ccc(C(=O)c2ccccc2)cc1)C(=O)N1CCC[C@H]1C(=O)NNC(N)=O [BRU-2881]
3 | 5280 | CN(CC(=O)N[C@@H](Cc1cncn1C)C(=O)N[C@@H](Cc1c[nH]c2ccccc12)C(=O)N[C@@H](CO)C(=O)N[C@@H](Cc1cscn1)C(=O)N[C@H](CCCNC(=N)N)C(=O)N[C@@H](Cc1c[nH]c2ccccc12)C(=O)N[C@@H](Cc1ccc(C(=O)c2ccccc2)cc1)C(=O)N1CCC[C@H]1C(=O)NNC(N)=O)C(=O)CN1CCN(CC(=O)O)CCN(CC(=O)O)CCN(CC(=O)O)CC1 [BRU-2739] ({DOTA}-[Sar][His(π-Me)]WS[Ala(4-thiazolyl)][dR]W[Bpa]P[azaGly]-NH2; C-terminus assumed)
4 | 3540 | N=C(N)NCCC[C@@H](NC(=O)[C@H](Cc1c[nH]cn1)NC(=O)[C@H](CO)NC(=O)[C@H](Cc1c[nH]c2ccccc12)NC(=O)[C@H](Cc1c[nH]cn1)NC(=O)[C@H](Cc1ccc2ccccc2c1)NC(=O)CN1CCN(CC(=O)O)CCN(CC(=O)O)CCN(CC(=O)O)CC1)C(=O)N[C@@H](Cc1c[nH]c2ccccc12)C(=O)N[C@@H](Cc1ccc(C(=O)c2ccccc2)cc1)C(=O)N1CCC[C@H]1C(=O)NNC(N)=O [BRU-2809]
5 | 230 to 500 | CC(=O)N[C@H](Cc1ccc2ccccc2c1)C(=O)N[C@@H](CCCNC(=N)N)C(=O)N[C@@H](Cc1c[nH]c2ccccc12)C(=O)N[C@@H](CO)C(=O)N[C@@H](Cc1c[nH]cn1)C(=O)N[C@H](CCCNC(=N)N)C(=O)N[C@@H](Cc1c[nH]c2ccccc12)C(=O)N[C@@H](Cc1ccc(C(=O)c2ccccc2)cc1)C(=O)N1CCC[C@H]1C(=O)NCCOCCNC(=O)CN1CCN(CC(=O)O)CCN(CC(=O)O)CCN(CC(=O)O)CC1 [BRU-2992]
6 | 210 ± 60 | N=C(N)NCCC[C@H](NC(=O)[C@H](N)Cc1ccc2ccccc2c1)C(=O)N[C@@H](Cc1c[nH]c2ccccc12)C(=O)N[C@@H](CO)C(=O)N[C@@H](Cc1c[nH]cn1)C(=O)N[C@H](CCCNC(=N)N)C(=O)N[C@@H](Cc1c[nH]c2ccccc12)C(=O)N[C@@H](Cc1ccc(C(=O)c2ccccc2)cc1)C(=O)N1CCC[C@H]1C(=O)NCCOCCNC(=O)CN1CCN(CC(=O)O)CCN(CC(=O)O)CCN(CC(=O)O)CC1 [compound 2991]
7 | 360 ± 20 | CNCC(=O)N[C@@H](CCCNC(=N)N)C(=O)N[C@@H](Cc1c[nH]c2ccccc12)C(=O)N[C@@H](CO)C(=O)N[C@@H](Cc1c[nH]cn1)C(=O)N[C@H](CCCNC(=N)N)C(=O)N[C@@H](Cc1c[nH]c2ccccc12)C(=O)N[C@@H](Cc1ccc(C(=O)c2ccccc2)cc1)C(=O)N1CCC[C@H]1C(=O)NCCCCNC(=O)CN1CCN(CC(=O)O)CCN(CC(=O)O)CCN(CC(=O)O)CC1 [compound 3041]
8 | 2600 | N=C(N)NCCC[C@H](NC(=O)[C@@H](Cc1ccc2ccccc2c1)NC(=O)CN1CCN(CC(=O)O)CCN(CC(=O)O)CCN(CC(=O)O)CC1)C(=O)N[C@@H](CCC(=O)O)C(=O)N[C@@H](CO)C(=O)N[C@@H](Cc1c[nH]cn1)C(=O)N[C@H](CCCNC(=N)N)C(=O)N[C@@H](Cc1c[nH]c2ccccc12)C(=O)N[C@@H](Cc1ccc(C(=O)c2ccccc2)cc1)C(=O)N1CCC[C@H]1C(=O)NNC(N)=O [BRU-3110] ({DOTA}-[d2Nal]RESH[dR]W[Bpa]P[azaGly]-NH2; C-terminus assumed)
9 | 2000 | N=C(N)NCCC[C@H](NC(=O)[C@H](Cc1ccc(C(=O)O)cc1)NC(=O)CN1CCN(CC(=O)O)CCN(CC(=O)O)CCN(CC(=O)O)CC1)C(=O)N[C@@H](Cc1c[nH]c2ccccc12)C(=O)N[C@@H](CO)C(=O)N[C@@H](Cc1c[nH]cn1)C(=O)N[C@H](CCCNC(=N)N)C(=O)N[C@@H](Cc1c[nH]c2ccccc12)C(=O)N[C@@H](Cc1ccc(C(=O)c2ccccc2)cc1)C(=O)N1CCC[C@H]1C(=O)NNC(N)=O [BRU-3092]
10 | 500 | CN(NC(=O)[C@@H]1CCCN1C(=O)[C@H](Cc1ccc(C(=O)c2ccccc2)cc1)NC(=O)[C@H](Cc1c[nH]c2ccccc12)NC(=O)[C@@H](CCCNC(=N)N)NC(=O)[C@H](Cc1c[nH]cn1)NC(=O)[C@H](CO)NC(=O)[C@H](Cc1c[nH]c2ccccc12)NC(=O)[C@H](CCCNC(=N)N)NC(=O)[C@@H](Cc1ccc2ccccc2c1)NC(=O)CN1CCN(CC(=O)O)CCN(CC(=O)O)CCN(CC(=O)O)CC1)C(N)=O [compound 3021]
11 | 8710 | CN(CC(=O)N[C@@H](Cc1c[nH]cn1)C(=O)N[C@@H](Cc1c[nH]c2ccccc12)C(=O)N[C@@H](CO)C(=O)N[C@@H](Cc1c[nH]cn1)C(=O)N[C@H](CCCNC(=N)N)C(=O)N[C@@H](Cc1c[nH]c2ccccc12)C(=O)N[C@H](C(=O)N1CCC[C@H]1C(=O)NNC(N)=O)C1Cc2ccccc2C1)C(=O)CN1CCN(CC(=O)O)CCN(CC(=O)O)CCN(CC(=O)O)CC1 [BRU-2765]

Second part, the compound before the results:

Row | Structure (SMILES) | EC50 [nM]
12 | CN(CC(=O)N[C@@H](Cc1c[nH]cn1)C(=O)N[C@@H](Cc1c[nH]c2ccccc12)C(=O)N[C@@H](CO)C(=O)N[C@@H](Cc1c[nH]cn1)C(=O)N[C@H](CCCNC(=N)N)C(=O)N[C@@H](Cc1c[nH]c2ccccc12)C(=O)N[C@@H](Cc1ccc2ccccc2c1)C(=O)N1CCC[C@H]1C(=O)NNC(N)=O)C(=O)CN1CCN(CC(=O)O)CCN(CC(=O)O)CCN(CC(=O)O)CC1 [BRU-2624] | 2010
13 | N=C(N)NCCC[C@H](NC(=O)[C@@H](Cc1ccc2ccccc2c1)NC(=O)CN1CCN(CC(=O)O)CCN(CC(=O)O)CCN(CC(=O)O)CC1)C(=O)N[C@@H](Cc1c[nH]c2ccccc12)C(=O)N[C@@H](CO)C(=O)N[C@@H](Cc1c[nH]cn1)C(=O)N[C@H](CCCNC(=N)N)C(=O)N[C@@H](Cc1c[nH]c2ccccc12)C(=O)O [BRU-3046, DO3A10CM-Dna12-Arg-Trp-Ser-His-Darg-Trp-OH] (HELM PEPTIDE1{[O=C(O)CN1CCN(CC(=O)O)CCN(CC(=O)[*:2])CCN(CC(=O)O)CC1].[O=C([C@@H](Cc1ccc2ccccc2c1)N[*:1])[*:2]].R.W.S.H.[dR].W}$$$$V2.0) | 15800
14 | N=C(N)NCCC[C@H](NC(=O)[C@@H](Cc1ccc2ccccc2c1)NC(=O)CN1CCN(CC(=O)O)CCN(CC(=O)O)CCN(CC(=O)O)CC1)C(=O)N[C@@H](Cc1c[nH]c2ccccc12)C(=O)N[C@@H](CO)C(=O)N[C@@H](Cc1c[nH]cn1)C(=O)N[C@H](CCCNC(=N)N)C(=O)N[C@@H](Cc1c[nH]c2ccccc12)C(=O)N[C@@H](Cc1ccc(C(=O)c2ccccc2)cc1)C(=O)N1CCC[C@H]1C(=O)Nc1ccccc1 [compound 3006] | 420

Same assay, conditions: EFO-27 cells, competition with [125I-Tyr8]BRU-2477, 90 min

Row | Structure (SMILES) | EC50 [nM]
15 | N=C(N)NCCC[C@H](NC(=O)[C@H](Cc1ccc2ccccc2c1)NC(=O)CN1CCN(CC(=O)O)CCN(CC(=O)O)CCN(CC(=O)O)CC1)C(=O)N[C@@H](Cc1c[nH]c2ccccc12)C(=O)N[C@@H](CO)C(=O)N[C@@H](Cc1c[nH]cn1)C(=O)N[C@H](CCCNC(=N)N)C(=O)N[C@@H](Cc1c[nH]c2ccccc12)C(=O)N[C@@H](Cc1ccc(C(=O)c2ccccc2)cc1)C(=O)N1CCC[C@H]1C(=O)NNC(N)=O [BRU-3051] | 620
16 | CN(CC(=O)N[C@@H](Cc1c[nH]cn1)C(=O)N[C@@H](Cc1c[nH]c2ccccc12)C(=O)N[C@@H](CO)C(=O)N[C@@H](Cc1c[nH]cn1)C(=O)N[C@H](Cc1c[nH]c2ccccc12)C(=O)N[C@@H](Cc1c[nH]c2ccccc12)C(=O)N[C@@H](Cc1ccc(C(=O)c2ccccc2)cc1)C(=O)N1CCC[C@H]1C(=O)NNC(N)=O)C(=O)CN1CCN(CC(=O)O)CCN(CC(=O)O)CCN(CC(=O)O)CC1 [compound 2731] ({DOTA}-[Sar]HWSH[dW]W[Bpa]P[azaGly]-NH2) | 1360
17 | N=C(N)NCCC[C@H](NC(=O)[C@@H](Cc1ccc2ccccc2c1)NC(=O)CN1CCN(CC(=O)O)CCN(CC(=O)O)CCN(CC(=O)O)CC1)C(=O)N[C@@H](Cc1c[nH]c2ccccc12)C(=O)N[C@@H](CO)C(=O)N[C@@H](Cc1c[nH]cn1)C(=O)N[C@H](CCCNC(=N)N)C(=O)N[C@@H](Cc1c[nH]c2ccccc12)C(=O)N[C@@H](Cc1ccc(C(=O)c2ccccc2)cc1)C(=O)N1CCC[C@H]1C(=O)NCC(=O)N[C@@H](Cc1ccccc1)C(N)=O [compound 2980] ({DOTA}-[d2Nal]RWSH[dR]W[Bpa]PGF-NH2) | 970

Same assay, conditions: Table 5: modifications of amino acids at positions 1 and 2; in vitro binding on EFO-27 cells

Row | Structure (SMILES) | EC50 [nM]
18 | CN(CC(=O)N[C@@H](Cc1ccc(O)cc1)C(=O)N[C@@H](Cc1c[nH]c2ccccc12)C(=O)N[C@@H](CO)C(=O)N[C@@H](Cc1c[nH]cn1)C(=O)N[C@H](CCCNC(=N)N)C(=O)N[C@@H](Cc1c[nH]c2ccccc12)C(=O)N[C@@H](Cc1ccc(C(=O)c2ccccc2)cc1)C(=O)N1CCC[C@H]1C(=O)NNC(N)=O)C(=O)CN1CCN(CC(=O)O)CCN(CC(=O)O)CCN(CC(=O)O)CC1 [BRU-2814] ({DOTA}-[Sar]YWSH[dR]W[Bpa]P[azaGly]-NH2) | 2240
19 | CN(CC(=O)N[C@@H](Cc1cncn1C)C(=O)N[C@@H](Cc1c[nH]c2ccccc12)C(=O)N[C@@H](CO)C(=O)N[C@@H](Cc1c[nH]cn1)C(=O)N[C@H](CCCNC(=N)N)C(=O)N[C@@H](Cc1c[nH]c2ccccc12)C(=O)N[C@@H](Cc1ccc(C(=O)c2ccccc2)cc1)C(=O)N1CCC[C@H]1C(=O)NNC(N)=O)C(=O)CN1CCN(CC(=O)O)CCN(CC(=O)O)CCN(CC(=O)O)CC1 [BRU-2759] | 10000
20 | N=C(N)NCCC[C@@H](NC(=O)[C@H](Cc1c[nH]cn1)NC(=O)[C@H](CO)NC(=O)[C@H](Cc1c[nH]c2ccccc12)NC(=O)[C@H](Cc1c[nH]cn1)NC(=O)[C@@H](Cc1cccc2ccccc12)NC(=O)CNC(=O)CN1CCN(CC(=O)O)CCN(CC(=O)O)CCN(CC(=O)O)CC1)C(=O)N[C@@H](Cc1c[nH]c2ccccc12)C(=O)N[C@@H](Cc1ccc(C(=O)c2ccccc2)cc1)C(=O)N1CCC[C@H]1C(=O)NNC(N)=O [BRU-2766] | 620

Same assay, conditions: ratio of EC50 to BRU-2813 (EC50=0.33 μM)

Row | Structure (SMILES) | binding potency, times lower than BRU-2813
21 | N=C(N)NCCC[C@H](NC(=O)[C@@H](Cc1ccc2ccccc2c1)NC(=O)CN1CCN(CC(=O)O)CCN(CC(=O)O)CCN(CC(=O)O)CC1)C(=O)N[C@@H](CCC(=O)O)C(=O)N[C@@H](CO)C(=O)N[C@@H](Cc1c[nH]cn1)C(=O)N[C@H](CCCNC(=N)N)C(=O)N[C@@H](Cc1c[nH]c2ccccc12)C(=O)N[C@@H](Cc1ccc(C(=O)c2ccccc2)cc1)C(=O)N1CCC[C@H]1C(=O)NNC(N)=O [BRU-3110] ({DOTA}-[d2Nal]RESH[dR]W[Bpa]P[azaGly]-NH2; C-terminus assumed) | ~8
